From article PMC7724566, “Prospects for Clinical Development of Stat5 Inhibitor IST5-002: High Transcriptomic Specificity in Prostate Cancer and Low Toxicity In Vivo” (Cancers, 2020)

What was measured:
Assay in all cases: Kinase Seeker luminescence cell-free assay
Format in all cases: binding
[1] = target: T1, ABL1 (Homo sapiens, UniProt P00519); details: percent activity of kinase after exposure to IST5 1 µM
T1 construct: purchased Reaction Biology (JAK1/2/3, TYK2); Luceome Biotechnologies KinaseSeeker (others)
Method: (§1) For Jak1, Jak2, Jak3 and Tyk2, a radiometric filtration binding assay was conducted by Reaction Biologicals (Malvern, PA, USA) (Table 1). This radiometric assay is a cell-free assay which is based on conventional filter-binding assays, directly measuring kinase catalytic activity toward a specific substrate. For evaluation of the activity of the other kinases, the Kinase Seeker Technology was utilized (Luceome Biotechnologies, Tucson, AZ, USA), which is a luminescence-based cell-free assay. In this assay, the reassembly of luciferase fragments is mediated by the interaction of a kinase with an active site-dependent probe. The competitive displacement of the probe by an inhibitor is measured by a change in luminescence signal. Percent activity of each kinase after exposure to IST5 (1 µM) is presented.

[2] = target: T2, AKT1 (Homo sapiens, UniProt P31749); details: percent activity of kinase after exposure to IST5 1 µM
T2 construct: purchased Reaction Biology (JAK1/2/3, TYK2); Luceome Biotechnologies KinaseSeeker (others)
Method: as §1

[3] = target: T3, AKT2 (Homo sapiens, UniProt P31751); details: percent activity of kinase after exposure to IST5 1 µM
T3 construct: purchased Reaction Biology (JAK1/2/3, TYK2); Luceome Biotechnologies KinaseSeeker (others)
Method: as §1

[4] = target: T4, AKT3 (Homo sapiens, UniProt Q9Y243); details: percent activity of kinase after exposure to IST5 1 µM
T4 construct: purchased Reaction Biology (JAK1/2/3, TYK2); Luceome Biotechnologies KinaseSeeker (others)
Method: as §1

[5] = target: T5, AURKA (Homo sapiens, UniProt O14965); details: percent activity of kinase after exposure to IST5 1 µM
T5 construct: purchased Reaction Biology (JAK1/2/3, TYK2); Luceome Biotechnologies KinaseSeeker (others)
Method: as §1

[6] = target: T6, AURKB (Homo sapiens, UniProt Q96GD4); details: percent activity of kinase after exposure to IST5 1 µM
T6 construct: purchased Reaction Biology (JAK1/2/3, TYK2); Luceome Biotechnologies KinaseSeeker (others)
Method: as §1

[7] = target: T7, AXL (Homo sapiens, UniProt P30530); details: percent activity of kinase after exposure to IST5 1 µM
T7 construct: purchased Reaction Biology (JAK1/2/3, TYK2); Luceome Biotechnologies KinaseSeeker (others)
Method: as §1

[8] = target: T8, BLK (Homo sapiens, UniProt P51451); details: percent activity of kinase after exposure to IST5 1 µM
T8 construct: purchased Reaction Biology (JAK1/2/3, TYK2); Luceome Biotechnologies KinaseSeeker (others)
Method: as §1

[9] = target: T9, CAMK1D (Homo sapiens, UniProt Q8IU85); details: percent activity of kinase after exposure to IST5 1 µM
T9 construct: purchased Reaction Biology (JAK1/2/3, TYK2); Luceome Biotechnologies KinaseSeeker (others)
Method: as §1

[10] = target: T10, CAMKK1 (Homo sapiens, UniProt Q8N5S9); details: percent activity of kinase after exposure to IST5 1 µM
T10 construct: purchased Reaction Biology (JAK1/2/3, TYK2); Luceome Biotechnologies KinaseSeeker (others)
Method: as §1

[11] = target: T11, DDR1 (Homo sapiens, UniProt Q08345); details: percent activity of kinase after exposure to IST5 1 µM
T11 construct: purchased Reaction Biology (JAK1/2/3, TYK2); Luceome Biotechnologies KinaseSeeker (others)
T11 sequence (Q08345 19-913): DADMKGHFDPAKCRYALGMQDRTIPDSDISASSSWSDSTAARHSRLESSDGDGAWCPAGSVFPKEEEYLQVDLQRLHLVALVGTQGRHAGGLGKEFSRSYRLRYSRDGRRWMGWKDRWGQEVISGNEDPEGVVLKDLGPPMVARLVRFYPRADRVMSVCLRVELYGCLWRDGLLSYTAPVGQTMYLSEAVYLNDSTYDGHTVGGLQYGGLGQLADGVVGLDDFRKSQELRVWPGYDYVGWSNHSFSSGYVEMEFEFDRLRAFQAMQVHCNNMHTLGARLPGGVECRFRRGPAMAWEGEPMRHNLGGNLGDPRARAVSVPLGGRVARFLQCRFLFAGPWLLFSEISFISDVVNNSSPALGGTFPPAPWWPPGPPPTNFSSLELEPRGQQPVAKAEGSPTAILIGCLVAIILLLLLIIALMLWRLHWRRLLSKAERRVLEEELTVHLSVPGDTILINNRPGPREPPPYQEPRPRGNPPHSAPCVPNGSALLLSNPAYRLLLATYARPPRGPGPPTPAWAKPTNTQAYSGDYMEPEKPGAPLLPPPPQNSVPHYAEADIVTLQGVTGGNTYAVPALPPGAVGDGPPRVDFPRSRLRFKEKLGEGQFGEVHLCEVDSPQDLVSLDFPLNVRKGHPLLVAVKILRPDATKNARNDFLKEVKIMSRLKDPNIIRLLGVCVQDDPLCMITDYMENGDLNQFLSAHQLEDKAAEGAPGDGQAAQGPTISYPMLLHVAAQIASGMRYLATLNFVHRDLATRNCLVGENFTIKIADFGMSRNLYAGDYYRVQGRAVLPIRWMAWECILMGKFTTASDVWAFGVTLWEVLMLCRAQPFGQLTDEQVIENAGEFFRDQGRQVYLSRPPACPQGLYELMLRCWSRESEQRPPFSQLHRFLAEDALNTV
Method: as §1

[12] = target: T12, DDR2 (Homo sapiens, UniProt Q16832); details: percent activity of kinase after exposure to IST5 1 µM
T12 construct: purchased Reaction Biology (JAK1/2/3, TYK2); Luceome Biotechnologies KinaseSeeker (others)
Method: as §1

[13] = target: T13, EPHA1 (Homo sapiens, UniProt P21709); details: percent activity of kinase after exposure to IST5 1 µM
T13 construct: purchased Reaction Biology (JAK1/2/3, TYK2); Luceome Biotechnologies KinaseSeeker (others)
Method: as §1

[14] = target: T14, FGFR2 (Homo sapiens, UniProt P21802); details: percent activity of kinase after exposure to IST5 1 µM
T14 construct: purchased Reaction Biology (JAK1/2/3, TYK2); Luceome Biotechnologies KinaseSeeker (others)
T14 sequence (P21802 22-821): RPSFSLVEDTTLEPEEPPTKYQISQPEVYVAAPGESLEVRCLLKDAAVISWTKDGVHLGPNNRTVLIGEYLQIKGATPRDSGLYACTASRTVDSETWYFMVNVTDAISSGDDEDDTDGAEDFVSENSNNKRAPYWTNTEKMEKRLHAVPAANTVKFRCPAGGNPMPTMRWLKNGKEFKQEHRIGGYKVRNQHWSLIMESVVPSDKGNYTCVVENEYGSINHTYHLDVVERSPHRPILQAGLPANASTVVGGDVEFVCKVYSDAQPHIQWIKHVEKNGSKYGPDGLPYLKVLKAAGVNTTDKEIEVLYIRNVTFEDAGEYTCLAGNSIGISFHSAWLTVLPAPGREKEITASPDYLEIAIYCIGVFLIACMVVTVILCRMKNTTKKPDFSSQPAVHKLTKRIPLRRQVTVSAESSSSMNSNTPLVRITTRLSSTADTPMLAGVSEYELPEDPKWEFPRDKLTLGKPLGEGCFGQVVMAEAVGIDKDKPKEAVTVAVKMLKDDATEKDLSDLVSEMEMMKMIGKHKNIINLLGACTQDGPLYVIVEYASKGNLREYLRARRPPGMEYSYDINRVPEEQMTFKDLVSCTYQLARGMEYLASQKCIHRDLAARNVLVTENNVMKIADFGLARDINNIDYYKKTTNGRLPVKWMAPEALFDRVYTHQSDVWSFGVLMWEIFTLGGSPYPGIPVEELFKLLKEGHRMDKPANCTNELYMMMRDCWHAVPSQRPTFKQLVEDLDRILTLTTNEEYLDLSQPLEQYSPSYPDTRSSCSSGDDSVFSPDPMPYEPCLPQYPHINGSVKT
Method: as §1

[15] = test system: FLT2/3; details: percent activity of kinase after exposure to IST5 1 µM
Method: as §1

[16] = target: T15, IGF1R (Homo sapiens, UniProt P08069); details: percent activity of kinase after exposure to IST5 1 µM
T15 construct: purchased Reaction Biology (JAK1/2/3, TYK2); Luceome Biotechnologies KinaseSeeker (others)
Method: as §1

[17] = target: T16, IKKe (Homo sapiens, UniProt Q14164); details: percent activity of kinase after exposure to IST5 1 µM
T16 construct: purchased Reaction Biology (JAK1/2/3, TYK2); Luceome Biotechnologies KinaseSeeker (others)
Method: as §1

[18] = target: T17, INSR (Homo sapiens, UniProt P06213); details: percent activity of kinase after exposure to IST5 1 µM
T17 construct: purchased Reaction Biology (JAK1/2/3, TYK2); Luceome Biotechnologies KinaseSeeker (others)
Method: as §1

[19] = target: T18, ITK (Homo sapiens, UniProt Q08881); details: percent activity of kinase after exposure to IST5 1 µM
T18 construct: purchased Reaction Biology (JAK1/2/3, TYK2); Luceome Biotechnologies KinaseSeeker (others)
Method: as §1

[20] = target: T19, LCK (Homo sapiens, UniProt P06239); details: percent activity of kinase after exposure to IST5 1 µM
T19 construct: purchased Reaction Biology (JAK1/2/3, TYK2); Luceome Biotechnologies KinaseSeeker (others)
Method: as §1

[21] = target: T20, LYN (Homo sapiens, UniProt P07948); details: percent activity of kinase after exposure to IST5 1 µM
T20 construct: purchased Reaction Biology (JAK1/2/3, TYK2); Luceome Biotechnologies KinaseSeeker (others)
Method: as §1

[22] = target: T21, MLK1 (Homo sapiens, UniProt P80192); details: percent activity of kinase after exposure to IST5 1 µM
T21 construct: purchased Reaction Biology (JAK1/2/3, TYK2); Luceome Biotechnologies KinaseSeeker (others)
Method: as §1

[23] = target: T22, MSK2 (Homo sapiens, UniProt O75676); details: percent activity of kinase after exposure to IST5 1 µM
T22 construct: purchased Reaction Biology (JAK1/2/3, TYK2); Luceome Biotechnologies KinaseSeeker (others)
Method: as §1

[24] = target: T23, MUSK (Homo sapiens, UniProt O15146); details: percent activity of kinase after exposure to IST5 1 µM
T23 construct: purchased Reaction Biology (JAK1/2/3, TYK2); Luceome Biotechnologies KinaseSeeker (others)
Method: as §1

[25] = target: T24, PAK1 (Homo sapiens, UniProt Q13153); details: percent activity of kinase after exposure to IST5 1 µM
T24 construct: purchased Reaction Biology (JAK1/2/3, TYK2); Luceome Biotechnologies KinaseSeeker (others)
Method: as §1

[26] = target: T25, PDGFRA (Homo sapiens, UniProt P16234); details: percent activity of kinase after exposure to IST5 1 µM
T25 construct: purchased Reaction Biology (JAK1/2/3, TYK2); Luceome Biotechnologies KinaseSeeker (others)
T25 sequence (P16234 24-1089): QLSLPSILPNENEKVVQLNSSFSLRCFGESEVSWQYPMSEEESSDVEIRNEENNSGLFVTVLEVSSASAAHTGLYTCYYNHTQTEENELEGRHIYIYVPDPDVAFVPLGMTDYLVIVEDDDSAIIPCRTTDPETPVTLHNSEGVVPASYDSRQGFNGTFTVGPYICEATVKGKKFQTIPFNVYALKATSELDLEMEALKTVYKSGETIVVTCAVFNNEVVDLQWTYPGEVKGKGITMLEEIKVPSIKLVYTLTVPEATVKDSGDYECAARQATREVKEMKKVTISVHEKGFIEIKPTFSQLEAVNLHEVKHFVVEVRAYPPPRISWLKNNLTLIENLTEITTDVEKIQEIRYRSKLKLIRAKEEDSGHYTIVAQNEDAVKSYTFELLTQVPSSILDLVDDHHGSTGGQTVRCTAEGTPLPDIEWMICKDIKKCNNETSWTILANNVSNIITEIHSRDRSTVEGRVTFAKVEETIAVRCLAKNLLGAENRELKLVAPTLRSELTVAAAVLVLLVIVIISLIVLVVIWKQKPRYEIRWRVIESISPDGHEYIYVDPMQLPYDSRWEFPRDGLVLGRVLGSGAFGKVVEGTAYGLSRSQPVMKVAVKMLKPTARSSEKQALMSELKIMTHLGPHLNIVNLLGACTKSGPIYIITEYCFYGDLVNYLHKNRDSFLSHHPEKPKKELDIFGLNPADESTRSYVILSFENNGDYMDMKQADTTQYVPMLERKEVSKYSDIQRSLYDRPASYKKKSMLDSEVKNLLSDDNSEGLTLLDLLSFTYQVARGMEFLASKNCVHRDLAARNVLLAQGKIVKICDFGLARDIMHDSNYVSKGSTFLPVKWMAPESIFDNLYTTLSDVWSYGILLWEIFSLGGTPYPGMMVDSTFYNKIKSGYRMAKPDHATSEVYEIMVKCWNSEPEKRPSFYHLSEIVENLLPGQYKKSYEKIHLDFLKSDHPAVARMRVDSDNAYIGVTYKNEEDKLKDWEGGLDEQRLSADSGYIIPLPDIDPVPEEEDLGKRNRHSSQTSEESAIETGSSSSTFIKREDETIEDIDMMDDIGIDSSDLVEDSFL
Method: as §1

[27] = target: T26, PDGFRB (Homo sapiens, UniProt P09619); details: percent activity of kinase after exposure to IST5 1 µM
T26 construct: purchased Reaction Biology (JAK1/2/3, TYK2); Luceome Biotechnologies KinaseSeeker (others)
Method: as §1

[28] = target: T27, PIM1 (Homo sapiens, UniProt P11309); details: percent activity of kinase after exposure to IST5 1 µM
T27 construct: purchased Reaction Biology (JAK1/2/3, TYK2); Luceome Biotechnologies KinaseSeeker (others)
Method: as §1

[29] = target: T28, PIM2 (Homo sapiens, UniProt Q9P1W9); details: percent activity of kinase after exposure to IST5 1 µM
T28 construct: purchased Reaction Biology (JAK1/2/3, TYK2); Luceome Biotechnologies KinaseSeeker (others)
Method: as §1

[30] = target: T29, PLK4 (Homo sapiens, UniProt O00444); details: percent activity of kinase after exposure to IST5 1 µM
T29 construct: purchased Reaction Biology (JAK1/2/3, TYK2); Luceome Biotechnologies KinaseSeeker (others)
Method: as §1

[31] = test system: PYK1; details: percent activity of kinase after exposure to IST5 1 µM
Method: as §1

[32] = target: T30, PYK2 (Homo sapiens, UniProt Q14289); details: percent activity of kinase after exposure to IST5 1 µM
T30 construct: purchased Reaction Biology (JAK1/2/3, TYK2); Luceome Biotechnologies KinaseSeeker (others)
Method: as §1

[33] = target: T31, SLK (Homo sapiens, UniProt Q9H2G2); details: percent activity of kinase after exposure to IST5 1 µM
T31 construct: purchased Reaction Biology (JAK1/2/3, TYK2); Luceome Biotechnologies KinaseSeeker (others)
Method: as §1

[34] = target: T32, SRC (Homo sapiens, UniProt P12931); details: percent activity of kinase after exposure to IST5 1 µM
T32 construct: purchased Reaction Biology (JAK1/2/3, TYK2); Luceome Biotechnologies KinaseSeeker (others)
Method: as §1

[35] = target: T33, TBK1 (Homo sapiens, UniProt Q9UHD2); details: percent activity of kinase after exposure to IST5 1 µM
T33 construct: purchased Reaction Biology (JAK1/2/3, TYK2); Luceome Biotechnologies KinaseSeeker (others)
Method: as §1

[36] = target: T34, TIE1 (Homo sapiens, UniProt P35590); details: percent activity of kinase after exposure to IST5 1 µM
T34 construct: purchased Reaction Biology (JAK1/2/3, TYK2); Luceome Biotechnologies KinaseSeeker (others)
Method: as §1

[37] = target: T35, TNK2 (Homo sapiens, UniProt Q07912); details: percent activity of kinase after exposure to IST5 1 µM
T35 construct: purchased Reaction Biology (JAK1/2/3, TYK2); Luceome Biotechnologies KinaseSeeker (others)
Method: as §1

[38] = target: T36, TRKB (Homo sapiens, UniProt Q16620)
T36 construct: purchased Reaction Biology (JAK1/2/3, TYK2); Luceome Biotechnologies KinaseSeeker (others)
T36 sequence (Q16620 32-822): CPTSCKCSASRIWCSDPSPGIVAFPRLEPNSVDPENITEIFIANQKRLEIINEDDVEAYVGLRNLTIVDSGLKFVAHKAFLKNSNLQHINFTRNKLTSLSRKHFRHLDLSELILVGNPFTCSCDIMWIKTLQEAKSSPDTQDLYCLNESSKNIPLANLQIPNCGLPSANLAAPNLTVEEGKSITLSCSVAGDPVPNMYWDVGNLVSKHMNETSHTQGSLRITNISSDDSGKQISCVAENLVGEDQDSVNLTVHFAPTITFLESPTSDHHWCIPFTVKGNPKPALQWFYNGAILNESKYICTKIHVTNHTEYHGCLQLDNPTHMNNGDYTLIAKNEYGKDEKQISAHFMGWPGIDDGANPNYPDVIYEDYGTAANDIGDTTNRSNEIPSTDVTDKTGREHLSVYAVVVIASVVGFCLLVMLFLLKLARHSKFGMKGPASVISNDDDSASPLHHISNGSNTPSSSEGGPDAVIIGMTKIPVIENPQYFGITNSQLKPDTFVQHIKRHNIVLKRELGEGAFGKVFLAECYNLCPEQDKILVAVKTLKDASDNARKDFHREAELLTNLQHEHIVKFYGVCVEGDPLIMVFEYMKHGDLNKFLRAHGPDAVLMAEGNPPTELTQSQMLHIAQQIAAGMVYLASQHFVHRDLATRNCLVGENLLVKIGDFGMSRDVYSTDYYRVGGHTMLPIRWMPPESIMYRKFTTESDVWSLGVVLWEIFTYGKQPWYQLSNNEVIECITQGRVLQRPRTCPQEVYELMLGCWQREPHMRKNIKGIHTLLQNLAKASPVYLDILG
Method: as §1

[39] = target: T37, TRKC (Homo sapiens, UniProt Q16288); details: percent activity of kinase after exposure to IST5 1 µM
T37 construct: purchased Reaction Biology (JAK1/2/3, TYK2); Luceome Biotechnologies KinaseSeeker (others)
T37 sequence (Q16288 32-839): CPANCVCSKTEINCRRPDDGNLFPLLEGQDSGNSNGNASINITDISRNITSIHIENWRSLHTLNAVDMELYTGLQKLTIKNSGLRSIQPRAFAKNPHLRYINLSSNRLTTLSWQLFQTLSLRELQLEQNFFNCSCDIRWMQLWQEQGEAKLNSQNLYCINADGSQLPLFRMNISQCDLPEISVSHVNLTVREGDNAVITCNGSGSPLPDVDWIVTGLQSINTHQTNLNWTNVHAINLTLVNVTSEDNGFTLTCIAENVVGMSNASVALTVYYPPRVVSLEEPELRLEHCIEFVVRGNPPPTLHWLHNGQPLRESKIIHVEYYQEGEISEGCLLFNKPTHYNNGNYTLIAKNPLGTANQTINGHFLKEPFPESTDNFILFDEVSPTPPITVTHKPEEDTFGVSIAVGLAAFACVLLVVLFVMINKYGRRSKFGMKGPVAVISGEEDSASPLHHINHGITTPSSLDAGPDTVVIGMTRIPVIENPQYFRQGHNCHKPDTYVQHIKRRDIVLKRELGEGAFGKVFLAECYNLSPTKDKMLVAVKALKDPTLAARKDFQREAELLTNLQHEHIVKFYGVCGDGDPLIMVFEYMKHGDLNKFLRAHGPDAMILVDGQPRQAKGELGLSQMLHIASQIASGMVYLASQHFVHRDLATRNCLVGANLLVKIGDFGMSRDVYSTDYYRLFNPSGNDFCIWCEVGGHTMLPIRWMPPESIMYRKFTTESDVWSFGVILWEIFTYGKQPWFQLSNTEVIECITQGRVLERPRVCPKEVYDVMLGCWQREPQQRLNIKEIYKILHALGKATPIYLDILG
Method: as §1

[40] = target: T38, YES1 (Homo sapiens, UniProt P07947); details: percent activity of kinase after exposure to IST5 1 µM
T38 construct: purchased Reaction Biology (JAK1/2/3, TYK2); Luceome Biotechnologies KinaseSeeker (others)
T38 sequence (P07947 whole entry): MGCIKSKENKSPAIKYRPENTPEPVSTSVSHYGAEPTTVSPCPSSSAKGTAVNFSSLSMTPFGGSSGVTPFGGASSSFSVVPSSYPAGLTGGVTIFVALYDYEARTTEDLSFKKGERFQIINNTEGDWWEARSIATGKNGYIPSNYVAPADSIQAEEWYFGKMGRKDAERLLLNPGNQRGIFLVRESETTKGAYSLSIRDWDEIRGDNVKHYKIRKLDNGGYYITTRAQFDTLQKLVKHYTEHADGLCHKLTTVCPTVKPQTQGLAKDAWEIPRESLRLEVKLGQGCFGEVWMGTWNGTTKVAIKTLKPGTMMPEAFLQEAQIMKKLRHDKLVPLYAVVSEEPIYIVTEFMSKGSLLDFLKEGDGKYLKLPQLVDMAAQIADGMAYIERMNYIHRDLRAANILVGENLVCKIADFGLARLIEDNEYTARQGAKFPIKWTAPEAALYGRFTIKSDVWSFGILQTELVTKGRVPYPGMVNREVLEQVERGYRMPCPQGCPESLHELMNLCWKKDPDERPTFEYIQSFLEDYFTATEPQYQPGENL
Method: as §1

[41] = target: T39, p38g (Homo sapiens, UniProt P53778); details: percent activity of kinase after exposure to IST5 1 µM
T39 construct: purchased Reaction Biology (JAK1/2/3, TYK2); Luceome Biotechnologies KinaseSeeker (others)
Method: as §1

In the case of `O=P(O)(O)OCC1OC(n2cnc3c(NCc4ccccc4)ncnc32)C(O)C1O` (stereo not drawn) [IST5], the Activity [1] is reported as 88.3%, the Activity [2] is reported as 100.0% and the Activity [3] is reported as 94.3%. For the same compound, the Activity [4] was 95.8%, the Activity [5] was 85.3% and the Activity [6] was 96.0%. The Activity [7] was 90.4%, the Activity [8] was 100.0% and the Activity [9] was 92.0%. The Activity [10] was 94.2%, the Activity [11] was 89.3% and the Activity [12] was 97.4%. For the same compound, the Activity [13] was 94.0%, the Activity [14] was 85.7% and the Activity [15] was 93.6%. It also gave an Activity [16] of 100.0%, an Activity [17] of 84.8% and an Activity [18] of 91.0%. The Activity [19] was 100.0%, the Activity [20] was 88.9% and the Activity [21] was 90.4%. For the same compound, the Activity [22] was 100.0%, the Activity [23] was 90.0% and the Activity [24] was 100.0%. For the same compound, the Activity [25] was 98.8%, the Activity [26] was 100.0% and the Activity [27] was 78.4%. It also gave an Activity [28] of 93.9%, an Activity [29] of 91.8% and an Activity [30] of 85.8%. It also gave an Activity [31] of 93.4%, an Activity [32] of 95.7% and an Activity [33] of 92.6%. For the same compound, the Activity [34] was 92.1%, the Activity [35] was 92.8% and the Activity [36] was 100.0%. For the same compound, the Activity [37] was 98.3%, the Activity ([38]; TRKB, percent activity of kinase after exposure to IST5 1 µM) was 89.4% and the “inhibitory activity on TrkB” value ([38]; Table 1) was “no inhibitory activity”. The Activity [39] was 93.4%, the Activity [40] was 100.0% and the Activity [41] was 100.0%.
